Test results from PubChem BioAssay AID2305 (GlaxoSmithKline (GSK), 2010).
“And” between values parts separate entries of the source, which are not always exact repeats. Identical values can stand only once.

Each molecule was assayed on P. falciparum 3D7 growth, pLDH absorbance (assay: P. falciparum 3D7 growth inhibition, dose response, strain 3D7 (AID 2305)).

Row | Compound | IC50
1 | COc1ccc(CNC2CCCC2)cc1-c1ccc(S(=O)(=O)NCCN2CCCC2)s1 | 800 nM
2 | COc1ccc2nc(NC3=NC(c4ccccn4)(c4ccccn4)C(=O)N3C)[nH]c2c1 | 590 nM
3 | CCOc1cc(-c2nnc3[nH]c(=O)n(C)c(=O)c3n2)ccc1OC(C)C | 400 nM
4 | Cc1cccc2[nH]c(-c3cccc(-c4cccc(NC(=O)c5ccoc5)c4)c3)nc12 | 220 nM
5 | COc1ccccc1CCNc1nc(C)cc(N[C@@H](CC(C)C)C(=O)NCc2cccc(F)c2)n1 | 970 nM
6 | O=C(Oc1ccc(C2CNCCc3c2cc(OC(=O)c2ccc(O)cc2)c(OC(=O)c2ccc(O)cc2)c3Cl)cc1)c1ccc(O)cc1 (stereo not given) | 980 nM
7 | CC(C)CNC(=O)CN1C(=O)C(c2ccccc2)(c2ccccc2)N=C1N | 820 nM
8 | CN(Cc1cccc(F)c1)C1CCN(c2cc(NC(=O)c3cccc(F)c3)ccn2)CC1 | 1160 nM
9 | COc1ccc2nccc(NC(=O)N3CCC(NCc4cc5ccccc5[nH]4)CC3)c2n1 | 560 nM
10 | O=C(NCC1CN(Cc2ccc(N3CCCC3)o2)CCCO1)c1ccc2c(c1)OCO2 (stereo not given) | 840 nM
11 | CCC(COCc1ccc(Cl)cc1)N(C)CCN(C)C(CC)COCc1ccc(Cl)cc1 (stereo not given) | 1060 nM
12 | CC(Oc1cc(-n2cnc3ccc(NC(=O)CCN4CCCCC4)cc32)sc1C(N)=O)c1ccccc1Cl (stereo not given) | 400 nM
13 | Cc1ccc(CNC(=O)[C@H](Cc2ccccc2)Nc2cc(C)nc(NCC3CCCCC3)n2)cc1 | 900 nM
14 | O=C(CC1CCCC1)N(Cc1ccc(-c2ccc(CNC3Cc4ccccc4C3)cc2)cc1)CC1CCCCN1 (stereo not given) | 1060 nM
15 | Cc1cccc2[nH]c(-c3ccc(-c4ccc(NC(=O)Nc5cccc(C#N)c5)cc4)cc3)nc12 | 110 nM
16 | CCN(CC)CCn1c(=N)n(CC(O)c2ccc(Cl)c(Cl)c2)c2ccccc21 (stereo not given) | 790 nM
17 | Cc1ccc(O)cc1Nc1ccnc2ccc(-c3cccc(CNCCN(C)C)c3)cc12 | 610 nM
18 | CN(C)CCNCc1cccc(-c2ccc3c(Nc4ccc(Oc5ccccn5)cc4)ccnc3c2)c1 | 230 nM
19 | CC(C)CNCc1cccc(-c2cccc(CN(CCCN3CCN(C)CC3)C(=O)NC3CCCCC3)c2)c1 | 760 nM
20 | COc1cccc2c(NN=Cc3ccccc3[N+](=O)[O-])ccnc12 | 590 nM
21 | CCCN(Cc1nnc(-c2cccs2)o1)C(=O)CSc1nnnn1-c1cc(C)cc(C)c1 | 500 nM
22 | C(=Cc1ccccc1)C=NNc1ccnc2ccccc12 | 730 nM
23 | N#CC(NC(=O)C=Cc1ccccc1)c1ccccc1 (stereo not given) | 180 nM
24 | NC12CC3CC(CC(C3)C1)C2 | 160 nM

Row | Compound | IC50
25 | C[C@@H]1CN(c2ccc3occ(C(=O)Nc4ccc(-c5ccncc5)c(Cl)c4)c3c2)C[C@H](C)N1C | 850 nM
26 | N#Cc1cccc(NC(=O)Nc2ccc(CC(=O)N3CCc4cc(Cl)c(N5CCN(C/C=C/c6ccccc6)CC5)cc43)cc2)c1 | 870 nM
27 | O=C(/C=C/c1ccc(F)cc1)NC1CCC(CCN2CCCN(c3ccc(C(F)(F)F)cn3)CC2)CC1 (stereo not given) | 1080 nM
28 | c1ccc(CCNCc2ccc(-c3cccc(-c4nc5ccccc5[nH]4)c3)cc2)nc1 | 620 nM
29 | Cc1cc(O)c(CN(C)Cc2ccc3c(c2)OCO3)cc1C(C)C | 740 nM
30 | CN1CCN(c2cc3c(cc2Br)CCN3C(=O)Nc2ccc(-c3cnc4ccccc4c3)cc2)CC1 | 580 nM
31 | COc1ccccc1CNCC(O)c1cc(C(F)(F)F)ccc1C(F)(F)F (stereo not given) | 940 nM
32 | Nc1nc(-c2ccc3c(Nc4ccc(F)c(Cl)c4)ccnc3c2)cs1 | 870 nM
33 | Cc1ccn2c(N(Cc3ccccc3)C(=O)c3ccc(Cl)c(Cl)c3)c(-c3ccccc3)nc2c1 | 990 nM
34 | NCCCNc1nccc(N2CCc3ncnc(Nc4ccc(OCc5cccc(F)c5)c(Cl)c4)c3C2)n1 | 830 nM
35 | Cc1ccc(-c2noc(=O)n2CC(=O)Nc2ccccc2-c2ccccc2)cc1 | 810 nM
36 | CCN(CCCN1CCCCC1)c1cc(C)nc(Nc2ccc(Cl)cc2)n1 | 380 nM
37 | COc1ccc2nccc([C@@H](O)CN3CC[C@H](NCc4nc5c(cc4F)SCC(=O)N5)[C@H](F)C3)c2c1 | 730 nM
38 | CO/C(=C\C=C\c1cc2cc(Cl)c(Cl)cc2[nH]1)C(=O)Nc1ccc(NCCN(C)C)nc1 | 770 nM
39 | CN1CC(c2ccc(Cl)c(Cl)c2)OC1=N (stereo not given) | 280 nM
40 | O=C(NCCN1CCCc2ccccc21)C1CCN(c2nc(-c3ccc(Cl)cc3)no2)CC1 | 690 nM
41 | C=CC(=O)Nc1ccc(Cl)cc1C(O)c1ccccc1 (stereo not given) | 180 nM
42 | CC1CN(Cc2ccccc2)CCN1c1ccc(NC(=O)c2ccc(F)cc2)cc1 (stereo not given) | 1010 nM
43 | CCCN(Cc1nnc(-c2ccco2)o1)C(=O)C1CCCN(C(=O)c2ccc(Cl)cc2)C1 (stereo not given) | 520 nM
44 | CCCC1CCNC(C(O)c2ccnc3ccc(OC)cc23)C1 (stereo not given) | 430 nM
45 | O=C1C(c2ccccc2)=C(Nc2cccc(OC(F)(F)C(F)F)c2)c2ccccc21 | 180 nM
46 | Cc1cn(CC(=O)Nc2cccc(-c3cccc(-c4nc5ccc(C(F)(F)F)cc5[nH]4)c3)c2)c(=O)[nH]c1=O | 680 nM
47 | CC(C)(C)C1CCc2onc(C(=O)Nc3cc(Cl)ccc3O)c2C1 (stereo not given) | 780 nM
48 | COc1cccc(NC(=O)Nc2cc(-c3ccc4[nH]ncc4c3)cc3c2CNC3=O)c1 | 120 nM

Row | Compound | IC50
49 | CCN(c1ccc(O)c(CN2CCCCC2)c1)c1ccc([N+](=O)[O-])cn1 | 890 nM
50 | O=C(/C=C/c1ccccc1Cl)NC1CCC(CN2CCC(c3c[nH]c4ccncc34)CC2)CC1 (stereo not given) | 330 nM
51 | Cc1cc(N(C)C)nc(Nc2ccc(NC(=O)C(C)Oc3ccccc3)cc2)n1 (stereo not given) | 950 nM
52 | CN(C)Cc1ccc(-c2cc3ncnc(Nc4ccc(OCc5cccc(F)c5)c(Cl)c4)c3s2)[nH]1 | 170 nM
53 | CCCCNc1cc(C)nc(NCc2ccccc2)n1 | 970 nM
54 | CCCC(=O)Nc1ccc(OCCCCN(Cc2ccccc2C(F)(F)F)c2ccc(C(F)(F)F)c(C#N)c2)cc1 | 970 nM
55 | C=C[C@H]1CN(CCCCCCC)CC[C@H]1C[C@@H](Cc1ccnc2ccc(OC)cc12)OC(=O)[C@](OC)(c1ccccc1)C(F)(F)F | 880 nM
56 | O=C(/C=C/c1ccc(Cl)c(Cl)c1)NCCCCCCN1CCCN(C(=O)Nc2ccc(Cl)c(C(F)(F)F)c2)CC1 | 560 nM
57 | O=C(/C=C/c1cccc(Cl)c1)NCCCCCN1CCC(c2c[nH]c3ccccc23)CC1 | 990 nM
58 | CC(C)c1ccc(NC(=O)Nc2ccc(Cn3ncc(N4CCCNCC4)c(Cl)c3=O)cc2)cc1 | 1050 nM
59 | COc1cccc2cc(C(=O)N[C@@H](CC(C)C)C(=O)N[C@H](/C=N/N3CCOC3=O)Cc3ccccc3)oc12 | 690 nM
60 | CCCCCc1cnc2nc(N)nc(N)c2c1 | 1230 nM
61 | Cn1cc(CN2CCCC(COC(c3ccc(F)cc3)c3ccc(F)cc3)C2)cn1 (stereo not given) | 570 nM
62 | COc1ccc(-c2ccccc2)cc1NC(=S)NC1CCC(CN2CCC(c3c[nH]c4ccccc34)CC2)CC1 (stereo not given) | 650 nM and 740 nM
63 | CC[C@H]1CN2CC[C@H]1C[C@H]2[C@H](O)c1cc(N2CCCC(CO)C2)nc2ccc(OC)cc12 (stereo not given in full) | 80 nM
64 | N=C(N)c1ccc(NC(=O)c2cc(Sc3ccc(O)c(C(=O)Nc4ccc(C(=N)N)cc4)c3)ccc2O)cc1 | 120 nM
65 | CCn1ccc2c(N3CCCS3(=O)=O)cc(C(=O)N[C@@H](Cc3ccccc3)[C@H](O)CNC3CCCCC3)cc21 | 140 nM
66 | c1ccc(Nc2nc(-c3ccccn3)cs2)nc1 | 1150 nM
67 | COc1ccc(C2(CNCC(O)c3cccc([N+](=O)[O-])c3)CCCCC2)cc1OC (stereo not given) | 960 nM
68 | CCN(CC)CCN1C(=O)C(O)(c2ccccc2Cl)c2c1cc(C(N)=O)cc2C(F)(F)F (stereo not given) | 700 nM
69 | O=C(NCc1ccco1)c1ccc(CN2CCN(C(c3ccccc3)c3ccccc3)CC2)cc1 | 790 nM
70 | Cc1noc(C)c1-c1ccc2c(Nc3ccccc3N3CCOCC3)c(C(=O)NCc3ccccc3)cnc2c1 | 1180 nM
